In ChEMBL document CHEMBL1649197, “New combinations of mutations in VanD-Type vancomycin-resistant Enterococcus faecium, Enterococcus faecalis, and Enterococcus avium strains” (2009) one finds MIC data, which are given here for two compounds.

Values after ≈ are worked out from the molar mass of the structure shown.

Common to all, as to format: functional
For test [1], the system named is Enterococcus faecium. Description: Antimicrobial activity against Enterococcus faecium BM4458 harboring plasmid PAT833 carrying P2 vanSD (G340S) aac (6)-aph (2) mutant gene after 24 hrs. The following applies: BM4458, 24 h.
For test [2], the system named is Enterococcus faecium. Description: Antimicrobial activity against vancomycin and teicoplanin resistant Enterococcus faecium NEF1 after 24 hrs. The following applies: NEF1, 24 h.
In test [3] the test system is Enterococcus faecium. The experiment in a line: Antimicrobial activity against vancomycin and teicoplanin resistant Enterococcus faecium BM4653 after 24 hrs. The conditions noted are these: BM4653, 24 h.
Test [4] deals with Enterococcus faecium. Description: Antimicrobial activity against vancomycin and teicoplanin resistant Enterococcus faecium BM4656 after 24 hrs. The conditions noted are these: BM4656, 24 h.
A further test has as its system Enterococcus faecalis. Description: Antimicrobial activity against vancomycin and teicoplanin resistant Enterococcus faecalis BM4654 after 24 hrs. The following applies: BM4654, 24 h.
A further test has as its system Enterococcus avium. The experiment in a line: Antimicrobial activity against vancomycin and teicoplanin resistant Enterococcus avium BM4655 after 24 hrs. The following applies: BM4655, 24 h.
The test system of test [5] is Enterococcus faecium. The experiment in a line: Antimicrobial activity against vancomycin and teicoplanin resistant Enterococcus faecium BM4339 after 24 hrs. The conditions noted are these: BM4339, 24 h.
The test system of test [6] is Enterococcus faecium. The experiment in a line: Antimicrobial activity against Enterococcus faecium BM4458 after 24 hrs. The conditions noted are these: BM4458, 24 h.
In test [7] the test system is Enterococcus faecium. Description: Antimicrobial activity against Enterococcus faecium BM4458 harboring plasmid PAT830 carrying P2 vanSD (V67A) aac (6)-aph (2) mutant gene after 24 hrs. The following applies: BM4458, 24 h.
Test [8] relates to Enterococcus faecium. The experiment in a line: Antimicrobial activity against Enterococcus faecium BM4458 harboring plasmid PAT831 carrying P2 vanSD 6bp330 aac (6)-aph (2) mutant gene after 24 hrs. The conditions noted are these: BM4458, 24 h.
Test [9] has as its system Enterococcus faecium. Description: Antimicrobial activity against Enterococcus faecium BM4458 harboring plasmid PAT832 carrying P2 vanSD (K308Q I309V R335Q) aac (6)-aph (2) mutant gene after 24 hrs. The following applies: BM4458, 24 h.

Take `CC(=O)N[C@@H]1[C@H](Oc2c3cc4cc2Oc2ccc(cc2Cl)[C@@H](O[C@@H]2O[C@@H](CO)[C@@H](O)[C@H](O)[C@@H]2NC(C)=O)[C@@H]2NC(=O)[C@H](NC(=O)[C@@H]4NC(=O)[C@H]4NC(=O)[C@@H](Cc5ccc(c(Cl)c5)O3)NC(=O)[C@H](N)c3ccc(O)c(c3)Oc3cc(O)cc4c3)c3ccc(O)c(c3)-c3c(O[C@H]4O[C@H](CO)[C@@H](O)[C@@H](O)[C@@H]4O)cc(O)cc3[C@@H](C(=O)O)NC2=O)O[C@@H](CO)[C@@H](O)[C@@H]1O`: the MIC against Enterococcus faecium [1] came out at 0.5 mg/L (≈ 0.283 µM); against Enterococcus faecium [2], 64 mg/L (≈ 36.2 µM); with Enterococcus faecium [3], 4 mg/L (≈ 2.26 µM); with Enterococcus faecium [4], 4 mg/L (≈ 2.26 µM); in the test on Enterococcus faecalis, 0.5 mg/L (≈ 0.283 µM); in the test on Enterococcus avium, 4 mg/L (≈ 2.26 µM). Besides, the MIC in the test on Enterococcus faecium [5] came out at 4 mg/L (≈ 2.26 µM); with Enterococcus faecium [6], 0.5 mg/L (≈ 0.283 µM); in the test with Enterococcus faecium [7] it was 0.5 mg/L (≈ 0.283 µM); in the test with Enterococcus faecium [8], 0.5 mg/L (≈ 0.283 µM); in the test on Enterococcus faecium [9] it was 0.5 mg/L (≈ 0.283 µM).
Consider `CN[C@H](CC(C)C)C(=O)N[C@H]1C(=O)N[C@@H](CC(N)=O)C(=O)N[C@H]2C(=O)N[C@H]3C(=O)N[C@H](C(=O)N[C@H](C(=O)O)c4cc(O)cc(O)c4-c4cc3ccc4O)[C@H](O)c3ccc(c(Cl)c3)Oc3cc2cc(c3O[C@@H]2O[C@H](CO)[C@@H](O)[C@H](O)[C@H]2O[C@H]2C[C@](C)(N)[C@H](O)[C@H](C)O2)Oc2ccc(cc2Cl)[C@H]1O` [VANCOMYCIN], for which the MIC with Enterococcus faecium [1] was 4 mg/L (≈ 2.76 µM); in the test with Enterococcus faecium [2], 512 mg/L (≈ 353 µM); with Enterococcus faecium [3], 32 mg/L (≈ 22.1 µM); with Enterococcus faecium [4] it was 32 mg/L (≈ 22.1 µM); in the test on Enterococcus faecalis it was 16 mg/L (≈ 11 µM); with Enterococcus avium, 32 mg/L (≈ 22.1 µM). Further, the MIC in the test with Enterococcus faecium [5] was 64 mg/L (≈ 44.2 µM); against Enterococcus faecium [6], 4 mg/L (≈ 2.76 µM); against Enterococcus faecium [7], 4 mg/L (≈ 2.76 µM); against Enterococcus faecium [8] it was 4 mg/L (≈ 2.76 µM); with Enterococcus faecium [9] it was 4 mg/L (≈ 2.76 µM).
